Experimental data as given in patent publication US7420001B2 (Wyeth, priority 2003, dated 2008).

Tests used:
[1] = target: T1, MMP-2 (Homo sapiens, UniProt P08253); assay: In-vitro fluorescence assay of MMP-2 activity; assay type: biochemical; conditions: recombinant human MMP-2; read-out: MMP-2 IC50
T1 construct: purchased Oncogene Research Products (Calbiochem) PF023
T1 sequence (P08253 110-660): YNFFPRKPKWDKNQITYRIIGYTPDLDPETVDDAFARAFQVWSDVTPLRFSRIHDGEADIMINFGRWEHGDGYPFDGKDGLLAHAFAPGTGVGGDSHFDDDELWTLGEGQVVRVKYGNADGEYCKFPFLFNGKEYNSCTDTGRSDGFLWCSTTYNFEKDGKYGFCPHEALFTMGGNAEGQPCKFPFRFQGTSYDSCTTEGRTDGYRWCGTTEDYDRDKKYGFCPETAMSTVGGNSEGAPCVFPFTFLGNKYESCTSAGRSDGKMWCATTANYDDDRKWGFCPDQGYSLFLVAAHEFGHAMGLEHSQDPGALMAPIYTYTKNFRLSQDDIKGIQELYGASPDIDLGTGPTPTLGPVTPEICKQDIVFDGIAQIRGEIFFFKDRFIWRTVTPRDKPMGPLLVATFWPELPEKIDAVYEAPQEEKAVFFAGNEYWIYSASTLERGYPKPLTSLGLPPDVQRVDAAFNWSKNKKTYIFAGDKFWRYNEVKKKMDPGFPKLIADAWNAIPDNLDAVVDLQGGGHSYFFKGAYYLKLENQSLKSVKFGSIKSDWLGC

[2] = target: T2, MMP-14 (Homo sapiens, UniProt P50281); assay: In-vitro fluorescence assay of MMP-14 activity; assay type: biochemical; conditions: recombinant human catalytic domain of MMP-14
T2 construct: 20 kDa; purchased Chemicon International, Inc. CC 1041

[3] = target: T3, MMP-13 (Homo sapiens, UniProt P45452); assay: In-vitro fluorescence assay of MMP-13 activity; assay type: biochemical; conditions: recombinant human catalytic domain of MMP-13; read-out: MMP-13 IC50
T3 construct: made in house

[4] = target: T4, MMP-1 (Homo sapiens, UniProt P03956)
T4 sequence (P03956 100-269 limits assumed): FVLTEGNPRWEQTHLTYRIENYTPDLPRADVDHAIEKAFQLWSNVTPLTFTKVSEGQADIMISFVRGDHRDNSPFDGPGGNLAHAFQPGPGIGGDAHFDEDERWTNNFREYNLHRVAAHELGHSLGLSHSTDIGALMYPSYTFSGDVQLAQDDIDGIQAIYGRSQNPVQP
Method: A continuous assay was used in which the substrate is a synthetic peptide containing a fluorescent group (7-methoxycoumarin; Mca) which is quenched by energy transfer to a 2,4-dinitrophenyl group. […] The substrate used was Mca-PQGL-(3-[2,4-dinitrophenyl]-L-2,3-diaminopropionyl)-AR-OH (denoted as Wammp-5, custom synthesized by AnaSpec, Inc.). The assay buffer consisted of 50 mM Hepes (pH 7.4), 100 mM NaCl, 5 mM CaCl2, and 0.005% Brij-35. Each well of black polystyrene 96-well plates contained a 200 μL reaction mixture consisting of assay buffer, purified MMP (final concentration of 25 ng/ml, prepared by diluting with the assay buffer), and varied concentrations of inhibitor (prepared by serially diluting a given inhibitor in DMSO in 96-well polypropylene plate). […] The enzymatic reactions were initiated by adding the substrate to a final concentration of 20 μM, and mixing 10 times with a pipette. The final DMSO concentration in the assay was 6.0%.
Plots of the inhibitor concentration vs. the percent inhibition were fit to the following equation: y=(a−d)/[1+(x/c)^b]+d, a general sigmoidal curve with Hill slope, a to d. x is the inhibitor concentration under test. y is the percent inhibition. a is the limiting response as x approaches zero. As x increases without bound, y tends toward its limit d. c is the inflection point (IC50) for the curve. That is, y is halfway between the lower and upper asymptotes when x=c. b is the slope factor or Hill coefficient.

SMILES	IC50 [1]	IC50 [2]	IC50 [3]	IC50 [4]
O=C(O)CNS(=O)(=O)c1ccc(-c2ccc(NC(=O)c3cc4ccccc4o3)cc2)cc1 [Example 1, N-({4′-[(1-benzofuran-2-ylcarbonyl)amino]-1,1′-biphenyl-4-yl}sulfonyl)glycine]	47 nM	13900 nM	35 nM	–
CC(C)[C@H](NS(=O)(=O)c1ccc(-c2ccc(NC(=O)c3cc4ccccc4[nH]3)cc2)cc1)C(=O)O [Example 3]	–	5600 nM	–	–
Cc1c(C(=O)Nc2ccc(-c3ccc(S(=O)(=O)N[C@@H](C(=O)O)C(C)C)cc3)cc2)oc2ccccc12 [Example 74, D-3-Methyl-2-{4′-[(3-methyl-benzofuran-2-carbonyl)-amino]-biphenyl-4-sulfonylamino}-butyric acid]	93 nM	29 nM	13 nM	28300 nM
CC(C)[C@H](C(=O)O)N(C)S(=O)(=O)c1ccc(-c2ccc(NC(=O)c3cc4ccccc4o3)cc2)cc1 [Example 77, N-({4′-[(1-benzofuran-2-ylcarbonyl)amino]-1,1′-biphenyl-4-yl}sulfonyl)-N-methyl-D-valine]	6 nM	7110 nM	5.7 nM	15000 nM
CN(CC(=O)O)S(=O)(=O)c1ccc(-c2ccc(NC(=O)c3cc4ccccc4o3)cc2)cc1 [Example 79, N-({4′-[(1-Benzofuran-2-ylcarbonyl)amino]-1,1′-biphenyl-4-yl}sulfonyl)-N-methylglycine]	35 nM	24000 nM	40 nM	500000 nM
CC(C)[C@@H](C(=O)O)N(CCN1CCOCC1)S(=O)(=O)c1ccc(-c2ccc(NC(=O)c3cc4ccccc4o3)cc2)cc1 [Example 82, N-({4′-[(1-Benzofuran-2-ylcarbonyl)amino]-1,1′-biphenyl-4-yl}sulfonyl)-N-(2-morpholin-4-ylethyl)-L-valine]	30 nM	> 60000 nM	18 nM	> 10000 nM
Cc1c(C(=O)Nc2ccc(-c3ccc(S(=O)(=O)N[C@H](C(=O)O)C(C)C)cc3)cc2)oc2ccccc12 [Example 83, N-[(4′-{[(3-Methyl-1-benzofuran-2-yl)carbonyl]amino}-1,1′-biphenyl-4-yl)sulfonyl]-L-valine]	259 nM	12400 nM	5.9 nM	24300 nM
Cc1c(COc2ccc(-c3ccc(S(=O)(=O)N[C@@H](C(=O)O)C(C)C)cc3)cc2)oc2ccccc12 [Example 139, D-3-Methyl-2-[4′-(3-methyl-benzofuran-2-ylmethoxy)-biphenyl-4-sulfonylamino]-butyric acid]	28 nM	3500 nM	4.4 nM	–
CC(C)[C@@H](NS(=O)(=O)c1ccc(-c2ccc(OCc3cc4ccccc4o3)cc2)cc1)C(=O)O [Example 141, D-2-[4′-(Benzofuran-2-ylmethoxy)-biphenyl-4-sulfonylamino]-3-methyl-butyric acid]	2.5 nM	500 nM	1.1 nM	–
Cc1c(C(=O)Nc2ccc(-c3ccc(S(=O)(=O)N[C@H](C(=O)O)C(C)C)cc3)cc2)oc2cccc(OCCNC(=O)OC(C)(C)C)c12 [Example 177, (S)-2-(4′-{[4-(2-tert-Butoxycarbonylamino-ethoxy)-3-methyl-benzofuran-2-carbonyl]-amino}-biphenyl-4-sulfonylamino)-3-methyl-butyric acid]	3000 nM	–	15 nM	–
Cc1c(C(=O)Nc2ccc(-c3ccc(S(=O)(=O)N[C@H](C(=O)O)C(C)C)cc3)cc2)oc2cccc(OCc3ccccn3)c12 [Example 178, (S)-3-Methyl-2-(4′-{[3-methyl-4-(pyridin-2-ylmethoxy)-benzofuran-2-carbonyl]-amino}-biphenyl-4-sulfonylamino)-butyric acid]	3320 nM	–	13 nM	–
Cc1c(C(=O)Nc2ccc(-c3ccc(S(=O)(=O)N[C@H](C(=O)O)C(C)C)cc3)cc2)oc2cccc(OCc3ccncc3)c12 [Example 179, (S)-3-Methyl-2-(4′-{[3-methyl-4-(pyridin-4-ylmethoxy)-benzofuran-2-carbonyl]-amino}-biphenyl-4-sulfonylamino)-butyric acid]	4000 nM	–	7.1 nM	–
